A word on the melting point: it is the temperature, or range, at which the solid turns liquid.

`Sc1nnc(C2CC2)n1Cc1ccccc1` registered a melting point of 176 to 178 °C.

For `O=C(CN1CCNCC1)NC1CCCCC1`, the melting point fell in the range of 99 to 101 °C.

`COc1ccc(S(=O)(=O)Cl)cc1Cl` showed a melting point of 80 to 82 °C.

In turn, `O=C(O)CCCNc1nc(-c2ccccc2)cs1` registered a melting point of 155 to 157 °C.

On to `Cc1oc(C(=O)O)cc1COc1ccccc1`, for which the melting point was 139 to 141 °C.

In the case of `CCCCCNC1=NCC(c2ccccc2)S1` (configuration not stated), the melting point was in the range of 66 to 68 °C.

`CNc1ccc([N+](=O)[O-])c(C)c1` displayed a melting point of 90 to 92 °C.

As for `Oc1ccc(C2SCCCS2)cc1`, the melting point was in the range of 154 to 156 °C.

With `CCOC(=O)Nc1ccc(C(=O)O)cc1`, the melting point was 170 to 172 °C.

As for `CNc1ncc2c(n1)-c1ccccc1SC2`, the melting point fell in the range of 123 to 125 °C.

In turn, `C=CCn1c(S)n[nH]c1=O` returned a melting point of 135 to 137 °C.

As to `CCOc1ccccc1-c1nn(C(C)(C)C)cc1C(=O)O`, the melting point fell in the range of 207 to 209 °C.

`Cc1nnc(N)o1` yielded a melting point of 183 to 185 °C.

On to `Cc1cc(N)n(C(=O)OC(C)(C)C)n1`, for which the melting point lay within 135 to 137 °C.

Compound `COc1cccc(NC(=O)C=CC(=O)O)c1` registered a melting point of 151 to 153 °C.

With `O=c1[nH]nc(-c2ccco2)o1`, the melting point was 111 to 113 °C.

Regarding `O=C(O)c1ccccc1NCc1ccccc1Cl`, the melting point was in the range of 183 to 185 °C.

Turning to `O=C(O)CCC1NC(=O)N(c2ccc(Cl)cc2)C1=O` (configuration not stated), the melting point was 212 to 214 °C.

`Cn1ccnc(Cl)c1=O` had a melting point of 118 to 120 °C.

For the compound `Nc1ccccc1N1C(=O)c2ccc(Br)cc2C1=O`, the melting point lay within 219 to 221 °C.

`Cn1cc(S(N)(=O)=O)cc1C(=O)O`: the melting point fell in the range of 202 to 204 °C.

`Cc1[nH]c(SCC(=O)O)nc1Cc1ccccc1` displayed a melting point of 183 to 185 °C.

The compound `O=c1cnc2ccccc2[nH]1` yielded a melting point of 271 to 272 °C.

The compound `Nc1ccc(-c2c3c(=O)[nH][nH]c(=O)c3c3n2CCC3)cc1` came in with a melting point of 309 to 311 °C.

On to `Cc1cc(O)n2ncnc2c1`, for which the melting point was in the range of 254 to 256 °C.

`NC(=S)c1cc(Br)cs1` returned a melting point of 199 to 201 °C.

As to `Clc1ccc(NCc2cccnc2)c(Cl)c1`, the melting point lay in the range of 76 to 78 °C.

As to `O=C(CCl)NCc1ccco1`, the melting point fell in the range of 81 to 83 °C.

`Cc1[nH]c2ccc(F)cc2c1CC(=O)O` had a melting point of 180 to 182 °C.

`Cc1cc(Br)ccc1N1CCCS1(=O)=O` returned a melting point of 77 to 79 °C.

With `CC1Cc2cc(C(=O)O)ccc2N1S(C)(=O)=O` (configuration not stated), the melting point lay in the range of 194 to 196 °C.

As to `CCN(CC)S(=O)(=O)c1ccc(N2CCOCC2)c(N)c1`, the melting point was 94 to 96 °C.

Compound `CC(C)(NC(=O)NCc1cccc(Br)c1)C(=O)O` displayed a melting point of 159 to 161 °C.

The compound `CCOC(=O)C1=C(CCl)NC(=O)NC1c1ccc(OC)cc1` (configuration not stated) had a melting point of 169 to 171 °C.

`COc1cccc(Nc2ccccc2C(=O)O)c1` registered a melting point of 135 to 137 °C.

In turn, `CC(=O)Nc1nc(C)c(S(=O)(=O)Cl)s1` yielded a melting point of 158 to 160 °C.

Regarding `Cc1cc(N)n(CCC#N)n1`, the melting point is 104 to 106 °C.

In the case of `O=C(CCc1ccccc1)c1ccccc1O`, the melting point lay in the range of 36 to 37 °C.

In turn, `Nc1nc(=O)c2ccccc2s1` came in with a melting point of 274 to 276 °C.

Take `Nc1cccc(-c2nc3ccccc3s2)c1`: the melting point lay in the range of 138 to 140 °C.

Compound `Nc1ccn(Cc2ccccc2)n1` had a melting point of 56 to 58 °C.

Take `NC(=O)c1cc(N)nc2ccccc12`: the melting point lay in the range of 199 to 201 °C.

The compound `CC(C)c1ccc(N2CCC(C(=O)O)C2=O)cc1` (configuration not stated) showed a melting point of 129 to 131 °C.

Compound `NC(=O)C1(N2CCNCC2)CCCC1` had a melting point of 138 to 140 °C.

Compound `Cc1ccc(C(C)C)c(OCCC(=O)O)c1` gave a melting point of 93 to 95 °C.

For `COc1cccc(-n2c(C)cc(C(=O)O)c2C)c1`, the melting point lay within 142 to 144 °C.

On to `COC(=O)c1ccc(OCC2CO2)cc1` (configuration not stated), for which the melting point fell in the range of 59 to 61 °C.

`Cc1ccc2oc(-c3nnc(S)n3N)cc2c1`: the melting point was 228 to 230 °C.

In turn, `CC(C)CC1NC(=O)NC1=O` (configuration not stated) gave a melting point of 215 to 217 °C.

The compound `O=C(NO)C12CC3CC(CC(C3)C1)C2` gave a melting point of 110 to 112 °C.

Compound `CC(=O)Oc1cccc(C(=O)O)c1` registered a melting point of 131 to 134 °C.

For `Cc1nn(Cc2cccc(Br)c2)cc1C(=O)O`, the melting point was 164 to 166 °C.

Take `CCCCCCCCCC(=O)N[C@@H](CCC(N)=O)C(=O)O`: the melting point is 129 to 131 °C.

Regarding `Nc1cc(-c2cc(F)cc(F)c2)[nH]n1`, the melting point is 110 to 112 °C.

Regarding `OCCNCc1ccc(Cl)c(Cl)c1`, the melting point was in the range of 54 to 56 °C.

In turn, `N#Cc1cc(C(=O)C(Cl)(Cl)Cl)c[nH]1` registered a melting point of 129 to 131 °C.

The compound `O=C(O)c1ccc(Cl)c(S(=O)(=O)Nc2ccc(Cl)cc2)c1` returned a melting point of 214 to 216 °C.

Compound `CCc1cccc(CC)c1-n1ccnc1` yielded a melting point of 74 to 76 °C.

Compound `CC(C)NC(=O)N(C)c1ccc(O)cc1` registered a melting point of 158 to 160 °C.

In turn, `CCC1(C(=O)O)CCN(C(=O)OC(C)(C)C)C1` (configuration not stated) had a melting point of 94 to 96 °C.

In the case of `CCN(CC)S(=O)(=O)c1cc(C(=O)O)ccc1Cl`, the melting point lay in the range of 118 to 120 °C.

`O=C(O)c1cn(-c2ccccc2)nc1-c1cccs1` gave a melting point of 197 to 199 °C.

`O=C(Nc1ccc(F)cc1)NC1CCNCC1` displayed a melting point of 183 to 185 °C.

Compound `O=C(CCl)NCc1ccccc1CN1CCCC1=O` gave a melting point of 125 to 127 °C.

On to `Cc1ccc(S(=O)(=O)NC(CCC(N)=O)C(=O)O)cc1C` (configuration not stated), for which the melting point was 171 to 173 °C.

`N#Cc1ccccc1OCc1ccccc1`: the melting point lay in the range of 70 to 72 °C.

In turn, `Cc1sc2nc(CC#N)[nH]c(=O)c2c1C` registered a melting point of 283 to 285 °C.

Values taken from a melting point compilation (Tetko et al.).
